In PMC7073886, “Structure–Bioactivity Relationships of Lapatinib Derived Analogs against Schistosoma mansoni” (ACS Medicinal Chemistry Letters, 2020):

Assays:
adult S. mansoni = experiment: Phenotypic screen of adult S. mansoni worms, severity scores and descriptors; format: cell-based, Schistosoma mansoni; conditions: for Descriptors (10 µM) 1 h / Severity Scores (10 μM) 1 h / Descriptors (10 µM) 5 h / Severity Scores (10 μM) 5 h / Descriptors (10 µM) 24 h / Severity Scores (10 μM) 24 h / Descriptors (10 µM) 48 h / Severity Scores (10 μM) 48 h: adult S. mansoni; for Descriptors (10 µM) 1 h / Descriptors (10 µM) 5 h / Descriptors (10 µM) 24 h / Descriptors (10 µM) 48 h: phenotypic descriptors; for Severity Scores (10 μM) 1 h / Severity Scores (10 μM) 5 h / Severity Scores (10 μM) 24 h / Severity Scores (10 μM) 48 h: scale 0 (no activity) to 4 (maximal activity); for bioactivity against adult S. mansoni: adult schistosomes; for Severity Scores (10 μM) 1 h / Severity Scores (10 μM) 5 h / Severity Scores (10 μM) 24 h / Severity Scores (10 μM) 48 h / bioactivity against adult S. mansoni: 10 μM
Description: Because the schistosome parasite can present multiple and dynamic phenotypic responses to chemical insult,[16] we employ a constrained nomenclature of descriptors to describe the changes in the parasite as a function of time and concentration (e.g., motility, density, and shape; and in the case of the adult parasite, an inability to adhere to the bottom of the assay dish). These descriptors are converted into severity scores on a scale of 0 (green)–4 (severest/red) that allow for partially quantitative comparisons of compound effects.[1]−[19] […] The descriptors themselves and their respective scores are detailed in the Supporting Information, Table S1. Severity score data are presented in the results (with the corresponding descriptors detailed in the Supporting Information, Tables S2–S8), and eight new analogs developed and synthesized in support of this effort are described. Finally, absorption, distribution, metabolism and excretion (ADME) data of all compounds presented in this work are reported in the Supporting Information, Table S15.
Table S1. Descriptors and associated severity scores used for S. mansoni adults.
R (rounded or shape altered 1
On sides (adults unable to 1
Shrunk (adults are shorter 1
surface (tegument) of adults)
dfailed to create analytical method
Maintenance of the Schistosoma mansoni life cycle (NMRI isolate), the preparation of adult worms (≥ 42-
days-old), and their co-incubation with test compounds were as described.7-9 Phenotypic responses were
visually recorded using a constrained nomenclature and converted to severity scores on a scale from zero
(no activity) to 4 (maximal activity).8, 9 Use of hamsters for maintaining the S. mansoni life-cycle was
approved by the Institutional Animal Care and Use Committee of the University of California San Diego.
The human myelomonocytic cell line THP -1 was grown at 37 °C and 5% CO2 in RPMI-1640 supplemented
with 10% iFBS, 2 mM glutamate, 100 U/mL penicillin and […] streptomycin.
Drug toxicity to HepG2 cells .10 HepG2 cells line were obtained from the American Type Culture
Collection and cultured in Minimal Essential Medium (MEM) supplemented with 0.19% sodium
bicarbonate, 10% Fetal Bovine Serum, 2 mM L -glutamine, 0.1 mM MEM non-essential amino, 0.009
mg/mL insulin, 1.76 mg/mL bovine serum albumin. The viability of the cells was measured using the MTT
(thiazolyl blue reduction) method. Briefly, ninety -six-well plates were seeded with 2.5 × 10^4 cells/well in
170 ml of culture medium and incubated overnight in 5% CO 2 at 37 °C. Cells were exposed to different
experimental compounds in DMSO. After 48 hours incubation, the viability of the cells was assessed using
MTT (thiazolyl blue reduction) as a dose response assay (11 two -fold serial dilutions) to obtain a calculated
IC50 determination. 4-Azaindolo[2,1-b]quinazoline-6,12-dione is used as a toxicity positive control and
each assay plate includes the following 3 additional controls: a) background control: no cells and no drug
was added, b) target control: cells added but no drugs, and c) DMSO control: same as the target control
except the culture media contains 0.6% DMSO. Absorbance was determined in all wells using a Perkin
Elmer, Ensight plate reader. The fifty percent inhibitory concentrations (IC50’s) were determined using
GraphPad Prism nonlinear regr ession (sigmoidal dose -response, variable slope) equation .
ADME Experiment Protocols
Aqueous pH 7.4 Solubility. Compounds were dried down from 10 mM DMSO solutions using centrifugal
evaporation technique. Phosphate buffer (0.1 M pH 7.4) was added and StirStix were inserted in the glass
vials, with shaking then performed at a constant temperature of 25 °C for 20 -24 h. This step was followed
by double centrifugation with a tip wash in between, to ensure that no residues of the dried compounds
interfere. The solutions were diluted before analysis and quantification using LC/MS/MS was performed.

Rat hepatocyte Clint = format: in vitro ADME; conditions: rat hepatocytes, intrinsic clearance; read-out: RH CLint
[1] = Log D7.4 shake-flask octanol-water; format: physicochemical; conditions: pH 7.4
Method: Log D7.4. Shake-flask octanol-water distribution coefficient was determined at pH 7.4 (Log D7.4). The aqueous solution used is 10 mM sodium phosphate pH 7.4 buffer. The method has been validated for Log D7.4 ranging from -2 to 5.0.
Human Plasma Protein Binding (PPB). PPB was determined using equilibrium dialysis (RED device) to separate free from bound compound. The amount of compound in plasma (10 µM initial concentration) and in dialysis buffer (pH 7.4 phosphate buffer) was measured by LC-MS/MS after equilibration at 37 °C in a dialysis chamber. The fraction unbound (fu) is reported.
Human Liver Microsomal Clint. In vitro intrinsic clearance was determined from human liver microsomes using a standard approach.11 Following incubation and preparation, the samples were analyzed using […]
Rat Hepatocyte Clint. In vitro intrinsic clearance was determined from rat hepatocytes using a standard approach.11 Following incubation and preparation, the samples were analyzed using LC/MS/MS. Refined […]
Calculated LogP and LogD values. Both LogP and LogD predictions are based on a modified version of the method12 where the predicted partition coefficients are composed of the molecules’ atomic increments.
General Chemistry. All starting materials were commercially obtained and were used without further purification, unless specified. Reaction solvents were purified by passage through alumina columns on a purification system manufactured by Innovative Technology (Newburyport, MA). NMR spectra were obtained on Varian NMR systems, operating at 400 or 500 MHz for 1 H acquisitions. LCMS analysis was performed using a Waters AllianceHT e2795 reverse phase HPLC (Waters SunFire C18 4.6 × 50 mm, 3.5 μm column), with a Waters 2996 photodiode array detector scanning from 210 nm to 600 nm, and Waters Micromass ZQ detector (electrospray ionization). Where required, final compounds were purified by preparative reverse phase HPLC (columns Waters Symmetry RP8 30 × 50 mm, 5 μm column, or OBD RP18 30 × 50 mm, 5 μm), with a single wavelength UV−visible detector and Waters Micromass ZQ (electrospray ionization).

| Structure (SMILES) | Descriptors (10 µM) 1 h (adult S. mansoni) | Severity Scores (10 μM) 1 h (adult S. mansoni) | Descriptors (10 µM) 5 h (adult S. mansoni) | Severity Scores (10 μM) 5 h (adult S. mansoni) | Descriptors (10 µM) 24 h (adult S. mansoni) | Severity Scores (10 μM) 24 h (adult S. mansoni) | Descriptors (10 µM) 48 h (adult S. mansoni) | Severity Scores (10 μM) 48 h (adult S. mansoni) | bioactivity against adult S. mansoni (adult S. mansoni) | hepatocyte CLint (Rat hepatocyte Clint) | logD [1] |
| --- | --- | --- | --- | --- | --- | --- | --- | --- | --- | --- | --- |
| CN1CCCN(c2ncc(-c3ccc4c(Nc5cnccn5)ccnc4c3)cn2)CC1 [4d] | none | 0 | none | 0 | none | 0 | none | 0 | complete loss in activity | 54 µL/min/1e6 cells | 2.6 |
| CN1CCN(c2ncc(-c3ccc4c(NC5CCC(N(C)C)CC5)ccnc4c3)cn2)CC1 (stereo not drawn) [S1a] | none | 0 | none | 0 | none | 0 | – | – | no significant bioactivity | 4.2 µL/min/1e6 cells | 0.3 |
| CCN1CCCN(c2ncc(-c3ccc4c(Nc5cnccn5)ccnc4c3)cn2)CC1 [4e] | none | 0 | none | 0 | none | 0 | none | 0 | – | 30 µL/min/1e6 cells | 2.7 |
| CN1CCN(c2ncc(-c3ccc4c(NCC5CCOCC5)ccnc4c3)cn2)CC1 [S1e] | none | 0 | none | 0 | none | 0 | – | 1 | no significant bioactivity | 23 µL/min/1e6 cells | 2 |
| CN1CCN(c2ncc(-c3ccc4c(Nc5cnccn5)ccnc4c3)cn2)CC1 [compound 3] | none | 0 | none | 0 | none | 0 | none | 0 | no bioactivity | – | – |
| Cc1cnc(Nc2ccnc3cc(-c4cnc(N5CCCN(C)CC5)nc4)ccc23)cn1 [5b] | none | 0 | none | 0 | Dark, S, on sides | 3 | – | 4 | bioactivity recorded after 24 h | 24 µL/min/1e6 cells | 2.9 |
| Cc1c(-c2cnc(N3CCN(C)CC3)nc2)ccc2c(Nc3cnccn3)ccnc12 [9a] | none | 0 | none | 0 | – | 1 | – | 2 | moderate potency after 24 h | 52 µL/min/1e6 cells | 3.3 |
| CN1CCN(c2ncc(-c3ccc4c(N[C@@H]5CCCC[C@H]5O)ccnc4c3)cn2)CC1 [S1c] | none | 0 | none | 0 | none | 0 | – | – | no significant bioactivity | 8.1 µL/min/1e6 cells | 1.7 |
| CCCN1CCN(c2ncc(-c3ccc4c(Nc5cnccn5)ccnc4c3)cn2)CC1 [4c] | none | 0 | – | 1 | On sides, S | 2 | – | 4 | activity after 5 h | 45 µL/min/1e6 cells | 4.2 |
| CN1CCN(c2ncc(-c3ccc4c(NC5CCOCC5)ccnc4c3)cn2)CC1 [S1d] | none | 0 | none | 0 | none | 0 | none | 0 | no significant bioactivity | – | 1.7 |
| CN1CCN(c2ncc(-c3ccc4c(NCCN5CCCC5)ccnc4c3)cn2)CC1 [S1b] | none | 0 | none | 0 | none | 0 | – | 1 | no significant bioactivity | 1 µL/min/1e6 cells | 1.2 |
| COc1ccc(NC(=O)c2ccc(-c3cnc(N4CCCN(C)CC4)nc3)cc2O)cc1Cl [7b] | none | 0 | – | 1 | – | 2 | – | 4 | minimal bioactivity after 5 h and potent activity after 48 h | 120 µL/min/1e6 cells | 3.4 |
| CN1C[C@H]2C[C@@H]1CN2c1ncc(-c2ccc3c(Nc4cnccn4)ccnc3c2)cn1 [4a] | none | 0 | none | 0 | – | 1 | – | 1 | minimal bioactivity was observed after 48 h | 17 µL/min/1e6 cells | 2.2 |
